Experimental data published in patent US12702671B2, “Calcineurin inhibitors of the setron family for the treatment of hearing loss” (SENSORION, priority 2015, dated 2026).
“Also recorded” adds a separate entry of the source.

Key:
[1] = test system: noise-induced hearing loss; conditions: Uemaetomari et al. 2005; Bas et al. 2009; cited from earlier work
outer hair cells = assay: Outer hair cell loss (cytocochleograms) in cochleae fixed at D14 after acoustic trauma; format: in vivo, Wistar rats; conditions: cochleae fixed after audiometry on day 14
Experimental: (§1) Animals were exposed to 121 dB octave band noise (8-16 kHz) for 2 h in groups of 4 rats, placed in individual compartments of a custom built circular cage placed on a 30 cm diameter platform rotating at 3 turns/minute (Aqila Innovation, Valbonne, France). The calibrated octave band noise generated by the RZ6 SigGen software was further amplified by a Crown D-75 amplifier in bridge mode (Crown Audio, Elkhart, IN, USA) and delivered by four Beyma CP16 compression tweeters (Acustica Beyma S. L., Moncada, Valencia, Spain) positioned 39 cm above the rotating platform, each 10 cm from the platform center.
(§2) Animals were treated by intraperitoneal injection daily for 14 days beginning immediately after acoustic trauma induction and subsequently repeated every 24 hours. The setron compounds granisetron HCl, ondansetron HCl, tropisetron HCl and azasetron HCl (Tocris Bioscience, Bristol, UK) were delivered dissolved in saline solution (1.6 mL/kg) while Tacrolimus (Selleck Chemicals, Houston, TX, USA) was dissolved in solution composed of 10% ethanol-100%/10% Kolliphor EL/1% Tween 80/79% saline (1.0 mL/kg). Placebo treated animals received injections of 1.6 mL/kg saline following the same treatment schedule.
After audiometry on day 14, animals were deeply anaesthetized with an intraperitoneal injection of pentobarbital (100 mg/kg). The cochleae were removed, fixed with 4% paraformaldehyde, pH 7.4, decalcified with 10% EDTA, pH 7.4 and then stained with myosin VIIa 1/1000. […] The mean loss of OHCs per group was subsequently calculated as a function of normalized distance from the apex in bins of 2.5% of the total length, using the total length of each histological specimen. Cell counts could reliably be obtained for up to 90% of the total distance from the apex (corresponding to the tonotopic region up to from 0 kHz to ~50 kHz in rat, Viberg & Canlon 2004), while the last 10% was too variable due to damage incurred during dissection.
(§3) Statistical analysis was performed using two-way ANOVA (Audiometry data: frequency and treatment group. Cochleograms: normalized distance from apex and treatment group) followed by Holm-Sidak post-hoc test for multiple comparisons. Results are given as mean±SEM and a p value less than or equal to 0.05 considered significant.
To further support the conclusions from the functional audiometry data, the loss of outer hair cells in four treatment group was determined by constructing cytocochleograms from histological preparations of cochleae fixed after audiometry on day 14.

[2] = Animal deaths during 14-day repeated treatment in the acoustic trauma study; format: in vivo, Wistar rats; conditions: Tacrolimus 1.5 mg/kg i.p. daily for 14 days
Experimental: (§4) All experiments were performed using 7 week old male Wistar rats (CERJ, Le Genest, France) in accordance with the French Ministry of Agriculture regulations and European Community Council Directive no. 86/609/EEC, OJL 358. The rats were fed a standard diet ad libitum and maintained on a 12 h light-dark cycle.
as §2
(§5) Baseline line audiometry (ABR and DPOAE measures) was performed for each animal 3 days before acoustic trauma was induced. Subsequently, audiometry measures were repeated 24 h and 14 days after acoustic trauma.
FIGS. 2 & 3 illustrate the audiometry measures (ABR thresholds and DPOAE amplitudes) determined for all treatment groups at baseline, 24 h and 14 days after acoustic trauma. For ABR thresholds exceeding 90 dB, a maximal value of 95 dB was attributed. […]

[3] = test system: acoustic trauma induced hearing loss; assay: Auditory brainstem response (ABR) thresholds after acoustic trauma; format: in vivo, Wistar rats
Experimental: as §4
(§6) Auditory Brainstem Reponses (ABR) and Distortion Product Otoacoustic Emissions (DPOAE) were recording using a RZ6 Auditory Workstation (Tucker-Davis Technologies, Alachua, FL, USA) with animals deeply anesthetized using 90 mg/kg ketamine and 10 mg/kg xylazine and placed on a 35° C. recirculating heating pad inside a sound attenuating cubicle (Med Associates Inc., St. Albans, VT, USA) throughout the experiment.
For ABR recordings, three stainless steel needle electrodes were placed subdermally over the vertex, the right mastoid and right hind leg of each animal. Tone-pips (5 msec duration presented at a rate of 21/s) at 8, 16 and 24 kHz were delivered to the right ear using a calibrated MF-1 speaker in closed-field configuration (Tucker-Davis Technologies, Alachua, FL, USA) at attenuating intensity until no reproducible response could be recorded. Close to the ABR threshold, the responses to 1000 acoustic stimuli in 5 dB steps were averaged. Responses were low-pass filtered at 3 kHz.
as §1, §2, §3, §5
(§7) To quantify and compare the difference in treatment effects between groups while taking into account individual baseline and trauma variability, the hearing loss (ABR threshold shift & DPOAE amplitude loss) at D14 relative to baseline, as well as the functional recovery of hearing from 24 h to D14 (ABR threshold shift & DPOAE amplitude loss) were determined for all treatment groups.

[4] = test system: acoustic trauma induced hearing loss; assay: Distortion product otoacoustic emissions (DPOAE) amplitudes after acoustic trauma; format: in vivo, Wistar rats; conditions: i.p. daily for 14 days after acoustic trauma; same doses as E4
Experimental: as §4, §6
DPOAEs were recorded and using ER10B+ Low Noise DPOAE microphone (Etymotic Research, Inc., Elk Grove Village, IL, USA) with acoustic stimuli delivered by two calibrated MF-1 speakers in closed-field configuration (Tucker-Davis Technologies, Alachua, FL, USA). DPOAEs were recorded at fixed stimulus levels (L1=L2=70 dB SPL), with an f2/f1 ratio of 1.2. Responses were recorded at 4, 8, 16, 24 and 32 kHz.
as §1, §2, §3, §5, §7

**Q.** With C=CC[C@@H]1/C=C(\C)C[C@H](C)C[C@H](OC)[C@H]2O[C@@](O)(C(=O)C(=O)N3CCCC[C@H]3C(=O)O[C@H](/C(C)=C/[C@@H]3CC[C@@H](O)[C@H](OC)C3)[C@H](C)[C@@H](O)CC1=O)[C@H](C)C[C@@H]2OC [tacrolimus] as the molecule, how does the “effect on hearing loss in pre-clinical models of noise-induced hearing loss” value [1] read?
**A.** The value was “reduce hearing loss”.

**Q.** And the “mean loss of outer hair cells compared to placebo” value (outer hair cells)?
**A.** Its value is “Neither the granisetron HCl nor the tacrolimus treated groups were significantly different from placebo”.

**Q.** What about the “animals that died between treatment initiation and end of the study” value [2] of the same molecule?
**A.** The value was 5 animals out of 11.

**Q.** And the “hearing outcomes (ABR thresholds and DPOAE amplitudes) at 14 days after acoustic trauma compared to placebo” value ([3]; i.p. daily for 14 days after acoustic trauma, same doses as E4)?
**A.** The value was “improvement at some frequencies”.

**Q.** And the “ABR threshold shift from baseline to day 14 compared to placebo” value ([3]; i.p. daily for 14 days from immediately after 121 dB trauma, azasetron HCl 4.22, ondansetron HCl 4, tropisetron HCl 3.5, granisetron HCl 3.8, Tacrolimus 1.5 mg/kg)?
**A.** Its value is “no major effect”.

**Q.** What about the “DPOAE amplitude loss from baseline to day 14 compared to placebo” value [4] of the same molecule?
**A.** Its value is “trend towards reduced loss of DPOAE amplitude; also recorded: trends towards improving DPOAE amplitude loss at some frequencies”.

**Q.** And the “recovery of DPOAE amplitudes from 24 h post trauma to day 14 compared to placebo” value [4]?
**A.** Its value is “improved recovery”.
